Here are results for eight molecules from patent US11242337B2, “Compounds useful for treating gastrointestinal tract disorders” (Ardelyx, Inc., priority 2017, dated 2022).

Like-named read-outs stand apart in the source and are kept apart here.

The test system of assay [1] is human ileum monolayer culture. As to the kind of experiment: Sustained inhibition of apical acid secretion in human organoid monolayer cell cultures (ileum). It is filed as cell-based. The conditions noted are these: 1 μM apical, dosed day 6, apical media pH day 8, vs DMSO; for inhibition at 1 µM: Homo sapiens, 48 h. The procedure: (§1) Basal media (BM) consisted of advanced DMEM/F12 containing 10 mM HEPES Invitrogen, 15630-080), 1:100 Glutamax (Invitrogen, 35050-061), and 1:100 penicillin/streptomycin (Invitrogen, 15140-122). Supplemented basal media (SBM) contained 1:100 N2 (Invitrogen, 17502-048), 1:50 B27 (Invitrogen, 12587-010), 1 mM N-acetylcysteine (Sigma, A9165), and 10 nM [Leu15]-gastrin I (Sigma, G9145). Growth factors used included 50 ng per mL mouse EGF (Peprotech, 315-09), 100 ng per mL mouse noggin (Peprotech, 250-38), 500 ng per mL human R-spondin 1 (R&D, 4645-RS), 100 ng per mL mouse Wnt-3a (R&D, 1324-WN), 20 μM. Y-27632 (Tocris, 1254), 10 mM nicotinamide (Sigma, N0636), 500 nM A83-01 (Tocris, 2939), 10 μM SB202190 (Tocris, 1264). Transwells were 0.4 μm pore polyester membrane 24-well Transwell inserts (Corning). Cultures were incubated at 37° C. in 5% CO2.
(§2) Human ileum organoids were cultured in WENRNAS (Wnt, EGF, noggin, R-spondin1, Nicotinamide, A83-01, SB202190) and typically grown for 7-12 days before being used to plate monolayer cultures. On day 0, organoid cultures embedded in Matrigel were treated with TrypLE Express to break organoids into small pieces and/or single cells. The cells were resuspended to 0.5×10^6 cells/mL in SBM containing WENRAY (Wnt, EGF, noggin, R-spondin1, A83-01, Y-27632). Following this step, 200 μL of cell suspension was plated into the apical side of a 24-well Transwell (100,000 cells/well) and 600 μL of SBM with WENRAY was added to the basolateral side. Ileum cells were differentiated with ENRA (EGF, noggin, R-spondin 1, A83-01) on day 3. The color of apical compartment turns from pink or orange to yellow due to the increase in NHE3 expression after differentiation.
Each human ileum monolayer culture well was washed twice with fresh SBM on the apical side on day 6 before compound dosing. All compound stocks were 10 mM dissolved in DMSO. Each compound stock was individually mixed with fresh SBM to reach final compound concentration 1 μM and dosed only on the apical side of the monolayer (total volume 200 μl). DMSO at the equivalent concentration was used as the vehicle control. Duplicate wells were dosed for each compound. On day 8, apical media pH was measured by pH electrode, to determine the ability of example compounds to produce sustained inhibition of NHE3 activity in a human monolayer culture system by preventing proton secretion into the apical compartment.

Assay [2] deals with human duodenum monolayer culture. As to the kind of experiment: Increased trans-epithelial resistance (TEER) in human organoid monolayer cell cultures. The format is cell-based. Conditions: 1 μM apical, baseline corrected. As to the method:
as §1, with “media (B” for “media (BM)”, “HEPES (Invitrogen,” for “HEPES Invitrogen,”, “20 μM” for “20 μM.”
as §2, with “Human duodenum” for “Human ileum”, “side. Duodenum” for “side. Ileum”, “with ENA” for “with ENRA”, “noggin,” for “noggin, R-spondin 1,”
Each human duodenum monolayer culture well was washed twice with fresh SBM on the apical side on day 6 or day 7 before dosing. All compound stocks were 10 mM dissolved DMSO. Each compound stock was individually mixed with fresh SBM to reach final compound concentration 1 μM and dosed only on the apical side of the monolayer (total volume 200 μl). DMSO at the equivalent concentration was used as the vehicle control. Duplicate wells were dosed for each compound. Transepithelial electrical resistance (TEER) was used as a quantitative technique to measure of tight junction permeability. TEER values were recorded (MERS00002, Millipore) before dosing and 30 mins and 1 hr after dosing for all wells. Each of the duplicate TEER values following treatment were corrected for the individual well baseline TEER. Baseline corrected TEER for each example compound was compared to the average of the DMSO wells and expressed as a percent TEER of vehicle control.

The term inhibition denotes how much of the control response was suppressed.

As for “3-[2-(2-[2-[(4-[[(1S,2S)-4,6-Dichloro-2-[(3R)-3-[methyl(propan-2-yl)amino]piperidin-1-yl]-2,3-dihydro-1H-inden-1-yl]oxy]benzene) sulfonamido]ethoxy]ethoxy)ethyl]-1-[4-([[2-(2-[2-[(4-[[(1S,2S)-4,6-dichloro-2-[(3R)-3-[methyl(propan-2-yl)amino]piperidin-1-yl]-2,3-dihydro-1H-inden-1-yl]oxy]benzene)sulfonamido]ethoxy]ethoxy)ethyl]carbamoyl]amino)butyl]urea; bis(trifluoroacetic acid) [Example 78]”, the “% inhibition (ileum)” value in assay [1] is “C (>70%)”. In assay [1], `CN(C)[C@H]1Cc2c(Cl)cc(Cl)cc2[C@@H]1Oc1ccc(S(=O)(=O)NCCOCCOCCNC(=O)NCCCCNC(=O)NCCOCCOCCNS(=O)(=O)c2ccc(O[C@H]3c4cc(Cl)cc(Cl)c4C[C@@H]3N(C)C)c(F)c2)cc1F` [Example 23, 3-[2-(2-[2-[(4-[[(1S,2S)-4,6-Dichloro-2-(dimethylamino)-2,3-dihydro-1H-inden-1-yl]oxy]-3-fluorobenzene)sulfonamido]ethoxy]ethoxy)ethyl]-1-[4-([[2-(2-[2-[(4-[[(1S,2S)-4,6-dichloro-2-(dimethylamino)-2,3-dihydro-1H-inden-1-yl]oxy]-3-fluorobenzene)sulfonamido]ethoxy]ethoxy)ethyl]carbamoyl]amino)butyl]urea; bis(trifluoroacetic acid)] showed an inhibition at 1 µM of 50 to 70%.

`Cc1cc(S(=O)(=O)NCCOCCOCCNC(=O)NCCCCNC(=O)NCCOCCOCCNS(=O)(=O)c2ccc(O[C@H]3c4cc(Cl)cc(Cl)c4C[C@@H]3N3CCC[C@@H](N(C)C)C3)c(C)c2)ccc1O[C@H]1c2cc(Cl)cc(Cl)c2C[C@@H]1N1CCC[C@@H](N(C)C)C1` [Example 26, 3-[2-(2-[2-[(4-[[(1S,2S)-4,6-Dichloro-2-[(3R)-3-(dimethylamino)piperidin-1-yl]-2,3-dihydro-1H-inden-1-yl]oxy]-3-methylbenzene)sulfonamido]ethoxy]ethoxy)ethyl]-1-[4-([[2-(2-[2-[4-[[(1S,2S)-4,6-dichloro-2-[(3R)-3-(dimethylamino)piperidin-1-yl]-2,3-dihydro-1H-inden-1-yl]oxy]-3-methylbenzenesulfonamido]ethoxy]ethoxy)ethyl]carbamoyl]amino)butyl]urea; bis(trifluoroacetic acid)]: the inhibition at 1 µM in assay [1] was in the range of 50 to 70%.

Turning to `Cc1cc(Cl)cc2c1C[C@H](N1CCC[C@@H](N(C)C)C1)[C@H]2Oc1ccc(S(=O)(=O)NCCOCCOCCNC(=O)NCCCCNC(=O)NCCOCCOCCNS(=O)(=O)c2ccc(O[C@H]3c4cc(Cl)cc(C)c4C[C@@H]3N3CCC[C@@H](N(C)C)C3)cc2)cc1` [Example 28, 3-[2-(2-[2-[(4-[[(1S,2S)-6-Chloro-2-[(3R)-3-(dimethylamino)piperidin-1-yl]-4-methyl-2,3-dihydro-1H-inden-1-yl]oxy]benzene)sulfonamido]ethoxy]ethoxy)ethyl]-1-[4-([[2-(2-[2-[(4-[[(1S,2S)-6-chloro-2-[(3R)-3-(dimethylamino)piperidin-1-yl]-4-methyl-2,3-dihydro-1H-inden-1-yl]oxy]benzene)sulfonamido]ethoxy]ethoxy)ethyl]carbamoyl]amino)butyl]urea; bis(trifluoroacetic acid)], the inhibition at 1 µM in assay [1] lay in the range of 50 to 70%.

In assay [1], `Cc1cc(S(=O)(=O)NCCOCCOCCNC(=O)NCCCCNC(=O)NCCOCCOCCNS(=O)(=O)c2ccc(O[C@H]3c4cc(Cl)cc(C)c4C[C@@H]3N3CCC[C@@H](N(C)C)C3)c(C)c2)ccc1O[C@H]1c2cc(Cl)cc(C)c2C[C@@H]1N1CCC[C@@H](N(C)C)C1` [Example 29] showed an inhibition at 1 µM of over 70%. Consider `Cc1cc(Cl)cc2c1C[C@H](N1CCC[C@@H](N(C)C)C1)[C@H]2Oc1ccc(S(=O)(=O)NCCOCCOCCNC(=O)NCCCCNC(=O)NCCOCCOCCNS(=O)(=O)c2ccc(O[C@H]3c4cc(Cl)cc(C)c4C[C@@H]3N3CCC[C@@H](N(C)C)C3)c(F)c2)cc1F` [Example 30, 3-[2-(2-[2-[(4-[[(1S,2S)-6-Chloro-2-[(3R)-3-(dimethylamino)piperidin-1-yl]-4-methyl-2,3-dihydro-1H-inden-1-yl]oxy]-3-fluorobenzene)sulfonamido]ethoxy]ethoxy)ethyl]-1-[4-([[2-(2-[2-[(4-[[(1S,2S)-6-chloro-2-[(3R)-3-(dimethylamino)piperidin-1-yl]-4-methyl-2,3-dihydro-1H-inden-1-yl]oxy]-3-fluorobenzene)sulfonamido]ethoxy]ethoxy)ethyl]carbamoyl]amino)butyl]urea; bis(trifluoroacetic acid)], for which the activity at 1 µM in assay [2] (1 hr after dosing, read-out: TEER at 60 minutes (% of Vehicle)) fell in the range of 100 to 130%; in assay [2] (0.5 h, 30 mins after dosing, read-out: TEER at 30 minutes (% of Vehicle)), 100 to 130%. Molecule `Cc1cc(Cl)cc2c1C[C@H](N1CCNCC1)[C@H]2Oc1ccc(S(=O)(=O)NCCOCCOCCNC(=O)NCCCCNC(=O)NCCOCCOCCNS(=O)(=O)c2ccc(O[C@H]3c4cc(Cl)cc(C)c4C[C@@H]3N3CCNCC3)cc2)cc1` [Example 34, 3-[2-(2-[2-[(4-[[(1S,2S)-6-Chloro-4-methyl-2-(piperazin-1-yl)-2,3-dihydro-1H-inden-1-yl]oxy]benzene)sulfonamido]ethoxy]ethoxy)ethyl]-1-[4-([[2-(2-[2-[(4-[[(1S,2S)-6-chloro-4-methyl-2-(piperazin-1-yl)-2,3-dihydro-1H-inden-1-yl]oxy]benzene)sulfonamido]ethoxy]ethyl)ethyl]carbamoyl]amino)butyl]urea; bis(trifluoroacetic acid)] returned an inhibition at 1 µM in assay [1] of 50 to 70%.

As to `Cc1cc(S(=O)(=O)NCCOCCOCCNC(=O)NCCCCNC(=O)NCCOCCOCCNS(=O)(=O)c2ccc(O[C@H]3c4cc(Cl)cc(C)c4C[C@@H]3N3CCNCC3)c(C)c2)ccc1O[C@H]1c2cc(Cl)cc(C)c2C[C@@H]1N1CCNCC1` [Example 35, 3-[2-(2-[2-[(4-[[(1S,2S)-6-Chloro-4-methyl-2-(piperazin-1-yl)-2,3-dihydro-1H-inden-1-yl]oxy]-3-methylbenzene)sulfonamido]ethoxy]ethoxy)ethyl]-1-[4-([[2-(2-[2-[(4-[[(1S,2S)-6-chloro-4-methyl-2-(piperazin-1-yl)-2,3-dihydro-1H-inden-1-yl]oxy]-3-methylbenzene)sulfonamido]ethoxy]ethoxy)ethyl]carbamoyl]amino)butyl]urea; bis(trifluoroacetic acid)], in assay [1], the inhibition at 1 µM is over 70%.
